According to US20190248834A1, “ENDOMORPHIN-2, TETRAPEPTIDE DERIVATIVES THEREOF, AND USES THEREOF” (priority 2016, published 2019):
Non-standard residues stand in square brackets, D forms with d. pGlu = O=C1CC[C@@H](C(=O)O)N1

Columns and labels:
Type in all cases: in vivo, human
[1] = system: severe arthritis of the left hip; experiment: Example 18: analgesic effect on arthritic hip, topical
Method: A subject had severe arthritis of the left hip with pain and inflammation for 6 months.
The subject topically applied a composition containing 0.7% (w/v) N-Ac-Tyr-Pro-Phe-Phe-NH2 (SEQ ID NO: 23) in WEP442 to the left hip and covered the hip with plastic wrap overnight. The pain reduced about 50% in 8 hours. The samen procedure was repeated the following day. […] The analgesic effect observed was 100% improvement as judged by clinical evaluation.

[2] = system: osteoarthritis of the fingers and wrists; experiment: Example 82: pain and flexibility of fingers and wrists affected by osteoarthritis, topical
From the text: A subject had osteoarthritis of the fingers and wrists for about 10 years, with substantial worsening over the past several months. Symptoms included painful finger joints and wrists. The pain was much worsened by flexion, so that making a first was too painful to try. Moreover, complete flexion had not been possible because of actual physical limitations. Anatomical signs of their disorder, e.g., enlarged finger joints, were conspicuous in their case. […] Additionally, complete flexion of the fingers and making of a tight first could be done without any discomfort.

[3] = system: back neck pain after cervical implant; experiment: Example 90: analgesic effect on post-surgery pain and discomfort, topical; conditions: 1% (w/v) in WEP442, topical
From the text: A subject had painful discomfort of their back neck for 2 years caused by a surgical titanium implant of the 7th cervical vertebra 2 years earlier. During the past years, the pain and discomfort had been improved from occasional treatments with acupuncture and massage therapy. However, such treatments provided only short term relief of pain and discomfort, usually one or two pain free days after each treatment.
On one afternoon, pain and discomfort suddenly developed. The subject topically applied a composition containing 1% (w/v) of N-Ac-Tyr-Pro-Phe-Phe-NH2 (SEQ ID NO: 23) in WEP442 solution to skin of their back neck area. […] The subject was free of pain and discomfort for at least 12 hours (4+ effect).

sunburn pain = experiment: Example 30: analgesic effect on sunburn pain, topical; conditions: 1% (w/v) in WEP442, topical
From the text: A subject with severe sunburn of their anterior legs the day after exposure to sunlight without sunscreen protection, topically applied a composition containing 1% (w/v) of N-Ac-Tyr-Pro-Phe-Phe-NH2 (SEQ ID NO: 23) in WEP442 to both legs.

neck and shoulder pain = experiment: Example 16: analgesic effect on neck and shoulder pain, topical; conditions: 0.5% (w/v) in WEP442, topical
Method: The subject could not move their neck without having a high level of pain and discomfort. The subject topically applied a composition containing 0.5% (w/v) N-Ac-Tyr-Pro-Phe-Phe-NH2(SEQ ID NO: 23) in WEP442 to the affected area of the skin. […] The pain relief lasted for more than 2 hours.

tennis elbow pain = experiment: Example 68: analgesic effect on tennis elbow pain, topical
From the text: A person who played tennis recreationally for several decades developed increasingly severe pain in the elbow of their right arm. Two acupuncture treatments provided partial relief. […] They now play tennis with no pain.

[4] = system: bursitis of the right elbow; experiment: Example 36: analgesic effect on pain of elbow bursitis, topical
From the text: A subject had painful bursitis of the right elbow that impaired their performance as a golfer. […] They played golf later the same day and experienced no bursitis pain during the game.

[5] = system: mechanically induced skin pain; experiment: Example 91: experimentally induced skin pain (needle roller), topical; conditions: 1% (w/v) in WEP442, topical before and after wounding
From the text: A subject, rolled onto their left forearm with forceful pressure a roller having many tiny stainless steel needles 1 mm in length, which penetrated through the epidermis causing sharp pain as well as punctate bleeding.

knee pain and foot pain = experiment: Example 71: analgesic effect on foot sprain and knee pain following patella fracture, topical; conditions: 0.5% (w/v) in WEP442, topical
From the text: A subject suffered severe pain in their left knee and in the arch of their left foot following a forward fall to a wooden floor. Diagnoses of multiple fractures of the patella and a bruised foot were made by x-ray. Surgical repair of the knee was done, following which severe knee pain and acute pain in the arch of the foot persisted. […] Topical applications 3-4 times daily allowed the subject to pursue rehabilitation procedures pain free.

migraine = experiment: Example 80: analgesic effect on pain and nausea from migraine headache, topical; conditions: 0.5% (w/v) in WEP442, topical at onset of symptoms
From the text: A subject with a history of recurrent attacks of migraine, was provided a solution composition containing 0.5% (w/v) of N-Pg-Tyr-Pro-Phe-Phe-NH2 (SEQ ID NO: 44) in WEP442 and a solution composition containing 0.5% (w/v) of N-Ac-Tyr-Pro-Phe-Phe-NHNH2 (SEQ ID NO: 31) in WEP442. […] Sensations of nausea that might have lingered went away after several minutes following a second topical application.

right shoulder pain = experiment: Example 77: analgesic effect on pain from shoulder strain, topical; conditions: 0.5% (w/v) in WEP442, topical
Method: A subject, presented with right shoulder pain for a duration of 5 days, which developed after carrying a very heavy grocery bag for several city blocks. The pain was increased by their attempts to lift their arm to an elevated position, and further increased from rotational arm movements. […] Such relief lasted for about 6 hours, at which time re-application provided the same relief.

severe headache = experiment: Example 59: analgesic effect on headache of acupuncturist, topical; conditions: 0.6% (w/v) in WEP442, topical
From the text: A person acupuncturist, on a day while practicing their specialty, developed a severe headache that was not relieved by administering acupuncture procedures themself.

[6] = system: chronic foot pain and neck pain; experiment: Example 67: analgesic effect on pain in feet and neck with plaque psoriasis, topical; conditions: 0.5% (w/v) in WEP442, topical
From the text: A person with plaque psoriasis since their early teenage years had chronic foot pain for the past 10-15 years and neck pain for the past several years. The latter had been associated with, and aggravated by occupationally keeping their neck to one side as they held a phone against their head. […] Such topical applications provided relief for over one month when used.

CC(=O)N[C@@H](Cc1ccc(O)cc1)C(=O)N1CCC[C@H]1C(=O)N[C@@H](Cc1ccccc1)C(=O)N[C@@H](Cc1ccccc1)C(N)=O [N-Ac-Tyr-Pro-Phe-Phe-NH2]
improvement by clinical evaluation ([1]; 0.7% (w/v) in WEP442, procedure repeated the following day, another 8 hours): 100% | pain reduction ([1]; 0.7% (w/v) in WEP442, under plastic wrap overnight, in 8 hours): about 50% | pain relief ([2]; 0.8% (w/v) in WEP442, after 1 week, one application every 12 hours): complete relief of pain was continually sustained | pain relief ([2]; 0.8% (w/v) in WEP442, one topical application, within 20 minutes): a degree of improvement of pain | pain relief ([2]; 0.8% (w/v) in WEP442, second application, within another 20 minutes): almost complete relief | analgesic effect grade [3]: 4+ (4+ (90-100%): complete relief or eradication of pain for more than 4 hours) | duration free of pain and discomfort [3]: at least 12 hours | pain relief [3]: the pain and discomfort disappeared | time to pain relief [3]: about 5 minutes | duration of pain relief (sunburn pain): about 3 hours | pain relief (sunburn pain): completely relieved almost instantly | duration of pain relief (neck and shoulder pain): more than 2 hours | relief of pain in shoulder and neck (neck and shoulder pain): approximately 90% | time to pain relief (neck and shoulder pain): ≤ 2 min | range of arm motion (tennis elbow pain; 0.5% (w/v) in WEP442, about 1 week of several applications daily): returned to normal | pain relief (tennis elbow pain; 0.5% (w/v) in WEP442, topical): substantial relief of pain | time to pain relief (tennis elbow pain; 0.5% (w/v) in WEP442, topical): 2 to 4 min | pain relief ([4]; 0.8% (w/v) in WEP442, topical): complete loss of pain | time to pain relief ([4]; 0.8% (w/v) in WEP442, topical): ≤ 2 min | duration of pain relief ([4]; 0.8% (w/v) in WEP442, topical in the afternoon): Pain did not recur until the next morning | effect on sharp punctate pain [5]: did not prevent nor relieve the sharp punctate pain

N-Pg-Tyr-Pro-Phe-Phe-NH2 ([pGlu]YPFF-NH2; SMILES NC(=O)[C@H](Cc1ccccc1)NC(=O)[C@H](Cc1ccccc1)NC(=O)[C@@H]1CCCN1C(=O)[C@H](Cc1ccc(O)cc1)NC(=O)[C@@H]1CCC(=O)N1)
duration of pain relief (knee pain and foot pain): more than 6 hours | pain relief (knee pain and foot pain): immediate and complete relief of knee pain and foot pain | pain relief (migraine): complete relief of pain | duration of pain relief (right shoulder pain): about 6 hours | pain relief (right shoulder pain): rapid, complete relief of pain | pain relief (severe headache): completely relieved their headache | time to pain relief (severe headache): ≤ 2 min | duration of pain relief [6]: 8 to 10 h | pain relief [6]: almost complete relief of pain
